PMC4494852, “Microwave-assisted preparation, structural characterization, lipophilicity, and anti-cancer assay of some hydroxycoumarin derivatives” (Monatshefte Fur Chemie, 2014)

How the values were obtained:
prostate cancer PC-3 = tested on: prostate cancer PC-3; parameters: method as in PMID 21439691; conditions: cited from earlier work
leukemia HL-60 (TB) = tested on: leukemia HL-60 (TB); parameters: method as in PMID 21439691; conditions: cited from earlier work
leukemia RPMI-8226 = tested on: leukemia RPMI-8226; parameters: method as in PMID 21439691; conditions: cited from earlier work
leukemia K-562 = tested on: leukemia K-562; parameters: method as in PMID 21439691; conditions: cited from earlier work
[1] = tested on: non-small-cell lung cancer NCI-H522; parameters: method as in PMID 21439691; conditions: cited from earlier work
[2] = tested on: human prostate cancer cells DU145; assay: Cytotoxicity assay (PrestoBlue, resazurin); type: cell-based; conditions: 10 and 100 μM, 48 h
Protocol: (§1) Synthesized substances were dissolved in DMSO (Sigma-Aldrich) to obtain 20 mM stock solutions and kept in 4 °C prior to use.
(§2) The human prostate cancer cells DU145 and mouse melanoma cells B16F10 were maintained in humidified incubator containing 5 % CO2 at 37 °C. DU145 cells were cultured in RPMI medium and B16F10 were cultured in DMEM medium. The media were supplemented with 10 % of fetal calf serum (FCS) and 1 % of antibiotic antimycotic (Sigma). Cells were passaged every 2–3 days. All cell lines were obtained from ATCC (The Global Bioresource Center).
(§3) PrestoBlue (test based on resazurin) was used for analysis cytotoxicity/cytostatic effects. DU145 and B16F10 cells were seeded on 96-well plate (10 × 10^3 cells per well). Examined substances were added to culture after overnight cell incubation. Two concentrations of substances (10 and 100 μM) were used. Control cells and control cells with solvent (DMSO) were applied. After 48 h PrestoBlue test was performed.

[3] = tested on: mouse melanoma cells B16F10; assay: Cytotoxicity assay (PrestoBlue, resazurin); type: cell-based; conditions: B16-F10 (melanoma), 10 and 100 μM, 48 h
Protocol: as §1, §2, §3

[4] = Lipophilicity by reversed-phase TLC on RP-18 WF254s plates with standardization; conditions: for φ 0 (intercept of the trend line with abscissa axis): molar fraction for which lipophilicity equals 0
Lewis lung carcinoma = tested on: Lewis lung carcinoma; parameters: method as in doi:10.1021/jo00316a018; conditions: cited from earlier work
P-388 lymphotic leukemia = tested on: P-388 lymphotic leukemia; parameters: method as in doi:10.1021/jo00316a018; conditions: cited from earlier work
sarcoma 180 = tested on: sarcoma 180; parameters: method as in doi:10.1021/jo00316a018; conditions: cited from earlier work
[5] = tested on: Walker 256 carcinosarcoma; parameters: method as in doi:10.1021/jo00316a018; conditions: cited from earlier work

## CC(=O)c1c(OCC#N)ccc2c(C)cc(=O)oc12 [8-Acetyl-7-(cyanomethoxy)-4-methylcoumarin]
Prostate cancer PC-3
  growth inhibition: inhibited the growth
Leukemia HL-60 (TB)
  growth inhibition: inhibited the growth
Leukemia RPMI-8226
  growth inhibition: inhibited the growth
Leukemia K-562
  growth inhibition: inhibited the growth
[1]
  growth inhibition: inhibited the growth

## Cc1cc(O)c2c(C)cc(=O)oc2c1 [Compound 2, 5-hydroxy-4,7-dimethylcoumarin]
[2]
  cytotoxicity in primary screen: slightly active
[3]
  cytotoxicity in primary screen: slightly active
[4]; acetonitrile/water
  S (slope of the trend line RM vs φ): 3.2466
  φ 0 (intercept of the trend line with abscissa axis): 0.437
[4]; dioxane/water
  S (slope of the trend line RM vs φ): 3.3439
  φ 0 (intercept of the trend line with abscissa axis): 0.483
[4]; isopropanol/water
  S (slope of the trend line RM vs φ): 2.8574
  φ 0 (intercept of the trend line with abscissa axis): 0.445
[4]; methanol/water
  S (slope of the trend line RM vs φ): 2.746
  φ 0 (intercept of the trend line with abscissa axis): 0.675

## CC(=O)c1c(C)cc2oc(=O)cc(C)c2c1O [Compound 3, 6-acetyl-5-hydroxy-4,7-dimethylcoumarin]
[2]
  cytotoxicity in primary screen: slightly active
[3]
  cytotoxicity in primary screen: slightly active
[4]; acetonitrile/water
  S (slope of the trend line RM vs φ): 3.706
  φ 0 (intercept of the trend line with abscissa axis): 0.519
[4]; dioxane/water
  S (slope of the trend line RM vs φ): 4.1018
  φ 0 (intercept of the trend line with abscissa axis): 0.55
[4]; isopropanol/water
  S (slope of the trend line RM vs φ): 3.15
  φ 0 (intercept of the trend line with abscissa axis): 0.479
[4]; methanol/water
  S (slope of the trend line RM vs φ): 3.2113
  φ 0 (intercept of the trend line with abscissa axis): 0.754

## CC(=O)c1c(C)cc2oc(=O)cc(C)c2c1OCC#N [Compound 6, 6-acetyl-5-(cyanomethoxy)-4,7-dimethylchromen-2-one]
other
  melting point: 283 to 284 °C
[4]; acetonitrile/water
  S (slope of the trend line RM vs φ): 3.7596
  φ 0 (intercept of the trend line with abscissa axis): 0.517
[4]; dioxane/water
  S (slope of the trend line RM vs φ): 3.2502
  φ 0 (intercept of the trend line with abscissa axis): 0.501
[4]; isopropanol/water
  S (slope of the trend line RM vs φ): 3.2079
  φ 0 (intercept of the trend line with abscissa axis): 0.383
[4]; methanol/water
  S (slope of the trend line RM vs φ): 2.3247
  φ 0 (intercept of the trend line with abscissa axis): 0.577

## C/C(=C\COc1ccc2ccc(=O)oc2c1)C1=CC(=O)C(C)(C)O1 [Geiparvarin]
Lewis lung carcinoma
  inhibitory activity: significant inhibitory activity
P-388 lymphotic leukemia
  inhibitory activity: significant inhibitory activity
Sarcoma 180
  inhibitory activity: significant inhibitory activity
[5]
  inhibitory activity: significant inhibitory activity
